Tests used:
BRAPP [1] = test: Post-emergence herbicidal activity on BRAPP (broadleaf signalgrass); type: in vivo, Brachiaria platyphylla; conditions: post-emergence spray; lowest tested rate with 80% or greater inhibition; about 14 days after treatment
Description: (§1) All such uses, and the biological activity enabling such uses, are embraced by the term “herbicidal” herein. Tables 15 and 16 summarize results of tests conducted as described below to determine the pre-emergence herbicidal activity, in the form of a GR80 value, of illustrative compounds of this invention. […] Where herbicidal activity was evident but 80% inhibition was not achieved at the highest rate tested (typically 1000 g/ha), an asterisk (*) is shown in the following tables. Herbicidal activity evident in the form of symptoms of phytotoxicity, in the absence of at least 80% inhibition at any rate, is indicated in the tables by “phyto”. A blank cell in the following tables indicates no herbicidal or phytotoxic response at any rate tested.
(§2) In another set of tests, the post-emergence activity of compounds of this invention was evaluated on the cool season species listed above. The following procedure was used.
(§3) A pre-prepared topsoil mixture (described above) was placed in a pot and compacted to a depth of 1.0 to 1.25 cm from the top of the pot. Seeds of each of several monocotyledonous and dicotyledonous annual plant species were placed on top of the soil The seeds were covered with a mixture of 50% topsoil and 50% Rediearth™ in sufficient quantity to level-fill the pots. The pots were then placed on a greenhouse bench and subirrigated as needed until plants growing from the seeds had emerged and reached a suitable growth stage for post-emergence treatment, typically 9 to 14 days after planting.
(§4) A known amount of each test compound dissolved or suspended in an appropriate organic solvent was diluted with a 50:50 mix of acetone and water and applied to the plants by spraying with a standard spray nozzle in a spray volume of 3,100 l/ha at a spray pressure of […] (30 psig). Control plants were not sprayed.
(§5) After treatment the plants were placed in a greenhouse with a 30/21° C. day/night temperature regime and were subsequently watered as needed for growth. Approximately 14 days after treatment, the plants were observed and herbicidal efficacy recorded as percent inhibition by comparison with control plants.

DIGSA [2] = test: Post-emergence herbicidal activity on DIGSA (large crabgrass); type: in vivo, Digitaria sanguinalis; conditions: post-emergence spray; lowest tested rate with 80% or greater inhibition; about 14 days after treatment
SORVU [3] = test: Post-emergence herbicidal activity on SORVU (shattercane); type: in vivo, Sorghum vulgare; conditions: post-emergence spray; lowest tested rate with 80% or greater inhibition; about 14 days after treatment
Description: as §1, §2, §3, §4, §5

SETFA [4] = test: Post-emergence herbicidal activity on SETFA (giant foxtail); type: in vivo, Setaria faberi; conditions: post-emergence spray; lowest tested rate with 80% or greater inhibition; about 14 days after treatment
Description: as §1, §2, §3, §4, §5

PANDI [5] = test: Post-emergence herbicidal activity on PANDI (fall panicum); type: in vivo, Panicum dichotomiflorum; conditions: post-emergence spray; lowest tested rate with 80% or greater inhibition; about 14 days after treatment
Description: as §1, §2, §3, §4, §5

ECHCG [6] = test: Post-emergence herbicidal activity on ECHCG (barnyardgrass); type: in vivo, Echinochloa crus-galli; conditions: post-emergence spray; lowest tested rate with 80% or greater inhibition; about 14 days after treatment
Description: as §1, §2, §3, §4, §5

SORHA [7] = test: Post-emergence herbicidal activity on SORHA (johnsongrass, seedling); type: in vivo, Sorghum halepense; conditions: post-emergence spray; lowest tested rate with 80% or greater inhibition; about 14 days after treatment
Description: as §1, §2, §3, §4, §5

PANMI [8] = test: Post-emergence herbicidal activity on PANMI (wild proso millet); type: in vivo, Panicum miliaceum; conditions: post-emergence spray; lowest tested rate with 80% or greater inhibition; about 14 days after treatment
CHEAL [9] = test: Post-emergence herbicidal activity on CHEAL (common lambsquarters); type: in vivo, Chenopodium album; conditions: post-emergence spray; lowest tested rate with 80% or greater inhibition; about 14 days after treatment
Description: as §1, §2, §3, §4, §5

SOLNI [10] = test: Post-emergence herbicidal activity on SOLNI (black nightshade); type: in vivo, Solanum nigrum; conditions: post-emergence spray; lowest tested rate with 80% or greater inhibition; about 14 days after treatment
Description: as §1, §2, §3, §4, §5

ABUTH [11] = test: Post-emergence herbicidal activity on ABUTH (velvetleaf); type: in vivo, Abutilon theophrasti; conditions: post-emergence spray; lowest tested rate with 80% or greater inhibition; about 14 days after treatment
Description: as §1, §2, §3, §4, §5

ECHCG [12] = test: Pre-emergence herbicidal activity on ECHCG (barnyardgrass); type: in vivo, Echinochloa crus-galli; conditions: lowest tested rate giving 80% or greater inhibition, approx. 14 days after planting and treating, greenhouse
How it was run: (§6)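 Values are GR80 (rate giving 80% inhibition), with rates up to typically 1000 g/ha. Inhibition is visually recorded against untreated pots roughly two weeks after sowing and surface treatment in a 30/21 °C day/night greenhouse.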

CIRAR = test: Pre-emergence herbicidal activity on CIRAR (canada thistle, seedling); type: in vivo, Cirsium arvense; conditions: lowest tested rate giving 80% or greater inhibition, approx. 14 days after planting and treating, greenhouse
How it was run: as §6

CONAR [13] = test: Post-emergence herbicidal activity on CONAR (field bindweed); type: in vivo, Convolvulus arvensis; conditions: post-emergence spray; lowest tested rate with 80% or greater inhibition; about 14 days after treatment
Description: as §1, §2, §3, §4, §5

DIGSA [14] = test: Pre-emergence herbicidal activity on DIGSA (large crabgrass); type: in vivo, Digitaria sanguinalis; conditions: lowest tested rate giving 80% or greater inhibition, approx. 14 days after planting and treating, greenhouse
How it was run: as §6

POROL [15] = test: Post-emergence herbicidal activity on POROL (common purslane; table head prints PORAL); type: in vivo, Portulaca oleracea; conditions: post-emergence spray; lowest tested rate with 80% or greater inhibition; about 14 days after treatment
Description: as §1, §2, §3, §4, §5

SOLNI [16] = test: Pre-emergence herbicidal activity on SOLNI (black nightshade); type: in vivo, Solanum nigrum; conditions: lowest tested rate giving 80% or greater inhibition, approx. 14 days after planting and treating, greenhouse
How it was run: as §6

PANMI [17] = test: Pre-emergence herbicidal activity on PANMI (wild proso millet); type: in vivo, Panicum miliaceum; conditions: lowest tested rate giving 80% or greater inhibition, approx. 14 days after planting and treating, greenhouse
How it was run: as §6

DATST [18] = test: Post-emergence herbicidal activity on DATST (jimsonweed); type: in vivo, Datura stramonium; conditions: post-emergence spray; lowest tested rate with 80% or greater inhibition; about 14 days after treatment
Description: as §1, §2, §3, §4, §5

AMARE [19] = test: Post-emergence herbicidal activity on AMARE (redroot pigweed); type: in vivo, Amaranthus retroflexus; conditions: post-emergence spray; lowest tested rate with 80% or greater inhibition; about 14 days after treatment
Description: as §1, §2, §3, §4, §5

BRAPP [20] = test: Pre-emergence herbicidal activity on BRAPP (broadleaf signalgrass); type: in vivo, Brachiaria platyphylla; conditions: lowest tested rate giving 80% or greater inhibition, approx. 14 days after planting and treating, greenhouse
How it was run: as §6

SETFA [21] = test: Pre-emergence herbicidal activity on SETFA (giant foxtail); type: in vivo, Setaria faberi; conditions: lowest tested rate giving 80% or greater inhibition, approx. 14 days after planting and treating, greenhouse
How it was run: as §6

CHEAL [22] = test: Pre-emergence herbicidal activity on CHEAL (common lambsquarters); type: in vivo, Chenopodium album; conditions: lowest tested rate giving 80% or greater inhibition, approx. 14 days after planting and treating, greenhouse
How it was run: as §6

DATST [23] = test: Pre-emergence herbicidal activity on DATST (jimsonweed); type: in vivo, Datura stramonium; conditions: lowest tested rate giving 80% or greater inhibition, approx. 14 days after planting and treating, greenhouse
How it was run: as §6

SORHA [24] = test: Pre-emergence herbicidal activity on SORHA (johnsongrass, seedling); type: in vivo, Sorghum halepense; conditions: lowest tested rate giving 80% or greater inhibition, approx. 14 days after planting and treating, greenhouse
How it was run: as §6

SORVU [25] = test: Pre-emergence herbicidal activity on SORVU (shattercane); type: in vivo, Sorghum vulgare; conditions: lowest tested rate giving 80% or greater inhibition, approx. 14 days after planting and treating, greenhouse
Description: as §1
The pre-emergence tests were conducted by the following procedure. Topsoil was sieved to pass through a 1.27 cm screen. Fertilizer was added to the topsoil and the mixture was then sterilized by heating. The topsoil mixture was placed in a pot and compacted to a depth of 1.0 to 1.25 cm from the top of the pot. Seeds of each of several monocotyledonous and dicotyledonous annual plant species were placed on top of the soil. Additional soil was subsequently placed over the seeds to level-fill the pot. A known amount of each test compound dissolved or suspended in an appropriate organic solvent was diluted with a 50:50 mix of acetone and water and applied to the surface of the soil. After treatment the plants were placed in a greenhouse with a 30/21° C. day/night temperature regime where they received 0.64 cm of overhead irrigation. All subsequent watering consisted of a light overhead mist and/or subirrigation as needed for germination and growth.
Approximately 14 days after planting and treating, the plants were observed and herbicidal efficacy recorded as percent inhibition by comparison with untreated plants.
The plant species usually regarded as weeds which were utilized in the tests are identified in the tables below according to the following legend, in which “d” indicates a dicotyledonous species and “m” a monocotyledonous species. All monocotyledonous species included in the tests herein are grasses.

PANDI [26] = test: Pre-emergence herbicidal activity on PANDI (fall panicum); type: in vivo, Panicum dichotomiflorum; conditions: lowest tested rate giving 80% or greater inhibition, approx. 14 days after planting and treating, greenhouse
How it was run: as §6

AMARE [27] = test: Pre-emergence herbicidal activity on AMARE (redroot pigweed); type: in vivo, Amaranthus retroflexus; conditions: lowest tested rate giving 80% or greater inhibition, approx. 14 days after planting and treating, greenhouse
How it was run: as §6

CONAR [28] = test: Pre-emergence herbicidal activity on CONAR (field bindweed); type: in vivo, Convolvulus arvensis; conditions: lowest tested rate giving 80% or greater inhibition, approx. 14 days after planting and treating, greenhouse
How it was run: as §6

ABUTH [29] = test: Pre-emergence herbicidal activity on ABUTH (velvetleaf); type: in vivo, Abutilon theophrasti; conditions: lowest tested rate giving 80% or greater inhibition, approx. 14 days after planting and treating, greenhouse
How it was run: as §6

POROL [30] = test: Pre-emergence herbicidal activity on POROL (common purslane); type: in vivo, Portulaca oleracea; conditions: lowest tested rate giving 80% or greater inhibition, approx. 14 days after planting and treating, greenhouse
How it was run: as §6

SMILES | Post-emergence activity (GR80) BRAPP (BRAPP [1]) | Post-emergence activity (GR80) DIGSA (DIGSA [2]) | Post-emergence activity (GR80) SORVU (SORVU [3]) | Post-emergence activity (GR80) SETFA (SETFA [4]) | Post-emergence activity (GR80) PANDI (PANDI [5]) | Post-emergence activity (GR80) ECHCG (ECHCG [6]) | Post-emergence activity (GR80) SORHA (SORHA [7]) | Post-emergence activity (GR80) PANMI (PANMI [8]) | Post-emergence activity (GR80) CHEAL (CHEAL [9]) | Post-emergence activity (GR80) SOLNI (SOLNI [10]) | Post-emergence activity (GR80) ABUTH (ABUTH [11]) | Pre-emergence activity (GR80) on ECHCG (ECHCG [12]) | Pre-emergence activity (GR80) on CIRAR (CIRAR) | Post-emergence activity (GR80) CONAR (CONAR [13]) | Pre-emergence activity (GR80) on DIGSA (DIGSA [14]) | Post-emergence activity (GR80) PORAL (POROL [15]) | Pre-emergence activity (GR80) on SOLNI (SOLNI [16]) | Pre-emergence activity (GR80) on PANMI (PANMI [17]) | Post-emergence activity (GR80) DATST (DATST [18]) | Post-emergence activity (GR80) AMARE (AMARE [19]) | other results
CC(CNC(=O)c1cccc(C(F)(F)F)c1)NC(=O)c1ccc(C(F)(F)F)c(F)c1 (stereo not shown) [Example 24] | phyto | phyto | phyto | [empty] | phyto | phyto | [empty] | phyto | – | – | – | – | – | – | – | – | – | – | – | – | –
C=C(C)CSc1ccccc1C(=O)NC(C)CNC(=O)c1cccc(C(F)(F)F)c1 (stereo not shown) [Example 124] | [empty] | [empty] | [empty] | [empty] | [empty] | [empty] | [empty] | [empty] | [empty] | phyto | phyto | phyto | 1000 g/ha | phyto | 1000 g/ha | phyto | phyto | phyto | phyto | phyto | Pre-emergence activity (GR80) on BRAPP (BRAPP [20]): phyto; Pre-emergence activity (GR80) on SETFA (SETFA [21]): phyto
CCSc1ncccc1C(=O)NC(C)CNC(=O)c1cccc(C(F)(F)F)c1 (stereo not shown) [Example 243, 2-ethylthio-N-[1-methyl-2-(3-trifluoromethyl)phenylcarbonylamino]ethyl-3-pyridinecarboxamide] | [empty] | [empty] | [empty] | [empty] | [empty] | [empty] | [empty] | [empty] | phyto | phyto | phyto | 1000 g/ha | 250 g/ha | * (Where herbicidal activity was evident but 80% inhibition was not achieved at the highest rate tested (typically 1000 g/ha), an asterisk (*) is shown) | 500 g/ha | * (Where herbicidal activity was evident but 80% inhibition was not achieved at the highest rate tested (typically 1000 g/ha), an asterisk (*) is shown) | 250 g/ha | 750 g/ha | 750 g/ha | phyto | Pre-emergence activity (GR80) on CHEAL (CHEAL [22]): 250 g/ha; Pre-emergence activity (GR80) on DATST (DATST [23]): 250 g/ha; Pre-emergence activity (GR80) on SORHA (SORHA [24]): * (Where herbicidal activity was evident but 80% inhibition was not achieved at the highest rate tested (typically 1000 g/ha), an asterisk (*) is shown); Pre-emergence activity (GR80) on SORVU (SORVU [25]): phyto; Pre-emergence activity (GR80) on PANDI (PANDI [26]): 500 g/ha; Pre-emergence activity (GR80) on AMARE (AMARE [27]): 750 g/ha; Pre-emergence activity (GR80) on CONAR (CONAR [28]): 250 g/ha; Pre-emergence activity (GR80) on ABUTH (ABUTH [29]): 500 g/ha; Pre-emergence activity (GR80) on BRAPP (BRAPP [20]): 500 g/ha; Pre-emergence activity (GR80) on SETFA (SETFA [21]): 500 g/ha; Pre-emergence activity (GR80) on PORAL (POROL [30]): 250 g/ha
